# Measurements: the OPERA property sets (Mansouri et al. 2018)
row,Structure (SMILES),logP
1,CC(C)CN1C(=O)CC2CCC(C)C3CCC4(C)OOC23C1O4 (stereo not given),3.66
2,CC1CCC2CC(=O)N(C)C3OC4(C)CCC1C23OO4 (stereo not given),2.76
3,CO[C@H]1O[C@@H]2O[C@@]3(C)CC[C@H]4[C@H](C)CC[C@@H]([C@H]1C)[C@@]24OO3,3.53
4,CC1CCC2CC(=O)N(CCCc3ccccc3)C3OC4(C)CCC1C23OO4 (stereo not given),4.39
5,CC(C)CCN1C(=O)CC2CCC(C)C3CCC4(C)OOC23C1O4 (stereo not given),4.16
6,CC1CCC2CC(=O)N(CC(=O)O)C3OC4(C)CCC1C23OO4 (stereo not given),1.75
7,CCCCCN1C(=O)CC2CCC(C)C3CCC4(C)OOC23C1O4 (stereo not given),4.24
8,C[C@@H]1CC[C@H]2[C@@H](C)C(=O)O[C@@H]3O[C@@]4(C)CC[C@@H]1[C@]32OO4,2.9
9,CCCN1C(=O)CC2CCC(C)C3CCC4(C)OOC23C1O4 (stereo not given),3.4
10,CC1CCC2CC(=O)N(Cc3ccc(Cl)cc3)C3OC4(C)CCC1C23OO4 (stereo not given),4.32
